Assay results: publication PMC8793051 (ACS Omega, 2022)

How the values were obtained:
[1] = tested on: oligo-2: d(CGATGTACATCG)2; test: Fluorescence titration; format: binding; details: 20 °C, pH 7.2
[2] = tested on: oligo-1: d(CGCGAATTCGCG)2; test: Fluorescence titration; format: binding; details: 20 °C, pH 7.2
[3] = Behaviour of HCl salt in cell culture media; format: physicochemical

SMILES | Ka binding affinity with oligo-2 [1] | Ka binding affinity with oligo-1 [2] | behaviour of HCl salt in cell culture media [3]
CCOc1ccc(-c2nc3cc(-c4nc5cc(N6CCN(C)CC6)ccc5[nH]4)ccc3[nH]2)cc1OCC [10a, 2-(2-(3,4-Diethoxyphenyl)-1H-benzo[d]imidazol-5-yl)-5-(4-methylpiperazin-1-yl)-1H-benzo[d]imidazole] | 2 × 10^6 M^1 | 7 × 10^6 M^–1 | –
CN1CCN(c2ccc3[nH]c(-c4ccc5[nH]c(-c6ccc(C(F)(F)F)cc6)nc5c4)nc3c2)CC1 [10b, 5-(4-Methylpiperazin-1-yl)-2′-(4-(trifluoromethyl)phenyl)-1H,1′H-2,5′-Bibenzo[d]imidazole] | 3 × 10^6 M^1 | 7 × 10^6 M^–1 | –
COc1ccc(OC)c(-c2nc3ccc(-c4nc5ccc(N6CCN(C)CC6)cc5[nH]4)cc3[nH]2)c1 [10c, 2′-(2,5-Dimethoxyphenyl)-6-(4-methylpiperazin-1-yl)-1H,3′H-2,5′-bibenzo[d]imidazole] | 2 × 10^6 M^1 | 8 × 10^6 M^–1 | –
CCCN1CCN(c2ccc3[nH]c(-c4ccc5[nH]c(-c6ccc(C(F)(F)F)cc6)nc5c4)nc3c2)CC1 [11b, 2-(4-(Trifluoromethyl)phenyl)-5-(5-(4-propylpiperazin-1-yl)-1H-benzo[d]imidazol-2-yl)-1H-benzo[d]imidazole] | 2 × 10^6 M^1 | 7 × 10^6 M^–1 | –
CCCN1CCN(c2ccc3nc(-c4ccc5nc(-c6cc(OC)ccc6OC)[nH]c5c4)[nH]c3c2)CC1 [11c, 2′-(2,5-Dimethoxyphenyl)-6-(4-propylpiperazin-1-yl)-1H,3′H-2,5′-bibenzo[d]imidazole] | 3 × 10^6 M^1 | 7 × 10^6 M^–1 | –
CCCN1CCN(c2ccc3[nH]c(-c4ccc5[nH]c(-c6cc(OC)c(OC)c(OC)c6)nc5c4)nc3c2)CC1 [11d, 5-(4-Propylpiperazin-1-yl)-2′-(3,4,5-trimethoxyphenyl)-1H,1′H-2,5′-bibenzo[d]imidazole] | 1 × 10^6 M^1 | – | –
CCCCN1CCN(c2ccc3nc(-c4ccc5nc(-c6cc(OC)ccc6OC)[nH]c5c4)[nH]c3c2)CC1 [12c, 6-(4-Butylpiperazin-1-yl)-2′-(2,5-dimethoxyphenyl)-1H,3′H-2,5′-bibenzo[d]imidazole] | 2 × 10^6 M^1 | – | –
CCCCN1CCN(c2ccc3[nH]c(-c4ccc5[nH]c(-c6cc(OC)c(OC)c(OC)c6)nc5c4)nc3c2)CC1 [12d, 5-(4-Butylpiperazin-1-yl)-2-(2-(3,4,5-trimethoxyphenyl)-1H-benzo[d]imidazol-5-yl)-1H-benzo[d]imidazole] | 4 × 10^6 M^1 | – | –
CCCCN1CCN(c2ccc3[nH]c(-c4ccc5[nH]c(-c6ccc(OCC)cc6)nc5c4)nc3c2)CC1 [12e, 5-(4-Butylpiperazin-1-yl)-2′-(4-ethoxyphenyl)-1H,1′H-2,5′-bibenzo[d]imidazole] | 3 × 10^6 M^1 | 1 × 10^7 M^–1 | –
CCOc1ccc(-c2nc3ccc(-c4nc5ccc(N6CCN(CCN(C)C)CC6)cc5[nH]4)cc3[nH]2)cc1OCC [13a, 2-(4-(2′-(3,4-Diethoxyphenyl)-1H,3′H-[2,5′-bibenzo[d]imidazol]-6-yl)piperazin-1-yl)N,N-dimethylethan-1-amine] | 2 × 10^6 M^1 | 9 × 10^6 M^–1 | precipitating in cell culture media
COc1ccc(OC)c(-c2nc3ccc(-c4nc5ccc(N6CCN(CCN(C)C)CC6)cc5[nH]4)cc3[nH]2)c1 [13c, 2-(4-(2′-(2,5-Dimethoxyphenyl)-1H,3′H-[2,5′-bibenzo[d]imidazol]-6-yl)piperazin-1-yl)-N,N-dimethylethan-1-amine] | 1 × 10^6 M^1 | 5 × 10^6 M^–1 | precipitating in cell culture media
COc1cc(-c2nc3ccc(-c4nc5ccc(N6CCN(CCN(C)C)CC6)cc5[nH]4)cc3[nH]2)cc(OC)c1OC [13d, 2-(4-(2′-(3,4,5-Trimethoxyphenyl)-1H,3′H-[2,5′-bibenzo[d]imidazol]-6-yl)piperazin-1-yl) N,N-Dimethylethan-1-amine] | 1 × 10^6 M^1 | 5 × 10^6 M^–1 | precipitating in cell culture media
CCOc1ccc(-c2nc3ccc(-c4nc5ccc(N6CCN(C)CC6)cc5[nH]4)cc3[nH]2)cc1 [Hoechst 33342, reference compound] | 5 × 10^6 M^1 | 2 × 10^7 M^–1 | –
